Source: patent US20250057959A1, “PHOSPHANE GOLD(I)-N-HETEROCYCLIC CARBENE COMPLEXES FOR TREATING CANCER” (KING FAHD UNIVERSITY OF PETROLEUM AND MINERALS, priority 2023, published 2025)

Experiments:
A2780cis = assay: MTT cell viability assay, cisplatin-resistant A2780cis; type: cell-based, human; settings: for Fold resistance (A2780cis/A2780): IC50 A2780cis/IC50 A2780
Text: Human epithelial ovarian cancer A2780 cell line and its cisplatin-resistant clone A2780cis were obtained from Sigma-Aldrich (Milano, Italy). SKOV3 (HTB-77) cells were from the American Type Culture Collection (ATCC). The two cell lines were selected to reflect the two different stages of OvCa and different sensitivity to cisplatin. A2780 cell lines were derived from the ovarian tumor tissue of an untreated patient, while SKOV3 was from the ascitic fluids (after metastasis). […] Cell lines were cultured in RPMI-1640 medium containing 10% fetal bovine serum (FBS) (Gibco, Thermo Fisher Scientific, U.S.A), 1% (v/v) of penicillin (10,000 units/mL)-streptomycin (10 mg/mL), and 1% (v/v) L-glutamine (200 mM) (all from Sigma- Aldrich) at 37° C. in a 5% CO2 fully humidified atmosphere. […] Cisplatin was included as a reference drug. […] Fold resistance was calculated as the ratio of the IC50 of the A2780cis to that of the parental cell line A2780.

A2780 and A2780cis cells [1] = assay: Apoptosis by flow cytometry (annexin-V/7AAD, caspase-3,7, BAX, Bcl-2); type: cell-based, human
Procedure: Results were detected by flow cytometry on a BD FACSCanto II flow cytometer. Data were analyzed using BD FACSDiva version 8.0.1 software (BD Biosciences) unless otherwise indicated. To evaluate apoptosis, tumor cells were treated for 48 hours and then stained for 15 minutes with FITC annexin-V (Thermo Fisher Scientific) and 7AAD (BD Pharmingen). […] For B-cell lymphoma/leukemia-2 (Bcl-2) and Bcl-2 associated x protein (Bax) evaluation, cells were fixed and permeabilized using FIX & PERM cell fixation and cell permeabilization kit (Life Technologies). […] The distribution of cells in different cell cycle phases was quantified using ModFit LT 4.0 software (Verity Software House, Topsham, ME, USA).

A2780 and A2780cis cells [2] = assay: DNA double-strand breaks, γ-H2AX western blot; type: cell-based, human
Procedure: (§1) Whole-cell lysates were prepared using cold RIPA buffer [150 mM NaCl, 50 mM Tris-HCl (pH 8), 0.1% SDS, 1% Igepal, and 0.5% desoxycholate sodium] containing a protease inhibitor cocktail (Roche Diagnostics S.p.a., Milan, Italy), phosphatase inhibitors 1 mM Na3VO4 and 1 mM NaF (Sigma-Aldrich). Protein concentrations were determined using the BioRad protein assay (Bio-Rad Laboratories, Inc., CA, USA). Equal amounts of proteins were mixed with Laemmli buffer, separated in 4-20% SDS-PAGE (Criterion Precast Gel, BioRad), and blotted onto a nitrocellulose membrane (Amersham, GE Healthcare). Membrane strips were blocked with EveryBilot blocking buffer (Bio-Rad) and incubated at 4° C. overnight with primary antibodies probed with the appropriate antibodies (Table 2) and developed using Immobilon Western chemioluminescent HRP substrate. Images were acquired using a ChemiDoc XRS system (Bio-Rad).

SKOV3-MCTSs = assay: Apoptosis, mitROS and DNA-DSBs in SKOV3-MCTSs; type: cell-based, human
Procedure: To obtain multiple spheroids, 5.0×10^4/mL SKOV3 cells were seeded in nonadherent conditions on poly-HEMA coated wells for 4 days. After drug treatment, viable cells were evaluated using PrestoBlue cell viability reagent (Thermo Fisher Scientific, Frederick, MD, USA) or alternatively trypsinized to a single cell suspension for further analysis.
2.0×10^5/mL A2780 and A2780cis cells were seeded in 6-well plates in complete medium and treated with complex 6 (0.15 μM and 0.5 μM). Results were detected by flow cytometry on a BD FACSCanto II flow cytometer. Data were analyzed using BD FACSDiva version 8.0.1 software (BD Biosciences) unless otherwise indicated. To evaluate apoptosis, tumor cells were treated for 48 hours and then stained for 15 minutes with FITC annexin-V (Thermo Fisher Scientific) and 7AAD (BD Pharmingen). […] For B-cell lymphoma/leukemia-2 (Bcl-2) and Bcl-2 associated x protein (Bax) evaluation, cells were fixed and permeabilized using FIX & PERM cell fixation and cell permeabilization kit (Life Technologies). For ROS generation, cells were stained with 5 μM MitoSOX red mitochondrial superoxide indicator (ThermoFisher Scientific) in a working solution for 30 minutes at 37° C. Cell cycle analysis was performed after 24 hours treatment with complex 6. Cells were harvested, fixed in cold 70% ethanol for 15 minutes, and stained with propidium iodide (PI) solution ([…] PI, 0.1% NP-40, 100 µg/mL PureLink RNase A, 0.1% sodium citrate) for 1 hour. The distribution of cells in different cell cycle phases was quantified using ModFit LT 4.0 software (Verity Software House, Topsham, ME, USA).
as §1

20S proteasome = target: T1, 20S proteasome (Homo sapiens, UniProt P28074); assay: 20S proteasome activity in lysates of treated cells; type: cell-based; settings: OvCa cells treated 24 hours
T1 construct: endogenous in cells; host or cells: A2780, A2780cis and SKOV3 ovarian cancer cells, treated for 24 h and then lysed
Procedure: Proteasome activity (EC 3.4.25.1) was evaluated on the same cell lysates as TrxR using the 20S proteasome activity assay kit APT280 (Merck Millipore) and a computer-interfaced GeniusPlus microplate reader (Tecan Trading AG, Switzerland). The activity was normalized to the protein concentration and expressed as a percentage of control.

[3] = test system: thioredoxin reductase (TrxR); settings: OvCa cells treated 24 hours
Procedure: To evaluate both the thioredoxin reductase (TrxR) and proteasome activity, cells were treated with complex 6 for 24 hours and then lysed in 50 mM Tris-HCl, pH 7.6, 0.1% Triton X-100, 0.9% NaCl. TrxR (EC 1.8.1.9) was assayed using thioredoxin reductase assay kit (Sigma-Aldrich). Enzyme activity was determined by reading the absorbance at 412 nm using a spectrophotometer (Biomate 3 Thermo Spectronic, Thermo Electonic Corporation, Monza, Italy).
The enzymatic activity was normalized to the protein concentration and determined using the Bio-Rad protein assay (protein assay dye reagent concentrate, Bio-Rad Laboratories, Segrate, Italy).

SMILES: CC(C)c1cccc(C(C)C)c1-n1ccn(-c2c(C(C)C)cccc2C(C)C)[c]1=[Au+][PH](C1CCCCC1)(C1CCCCC1)C1CCCCC1.F[P-](F)(F)(F)(F)F [Complex 6, [Au(IPr)(C18H33P)] PF6]
- IC50 (A2780cis; 72 hours treatment, MTT): 120 ± 10 nM
- Fold resistance (A2780cis/A2780) (A2780cis): 0.86
- Fold resistance (A2780cis/A2780) (A2780cis; listed as complex 6): 0.86
- Apoptosis (annexin-V / 7AAD positive cells) (A2780 and A2780cis cells [1]; 48 hours, complex 6 and auranofin at IC50 and IC75, cisplatin 0.15 μM and 0.50 μM): increased in a dose-dependent manner
- Caspase-3,7 activation (A2780 and A2780cis cells [1]; FLICA, flow cytometry): activated caspase-3,7
- BAX expression (A2780 and A2780cis cells [1]; flow cytometry): induced the proapoptotic BAX
- BCL-2 expression (A2780 and A2780cis cells [1]; flow cytometry): down-regulated the antiapoptotic BCL-2
- DNA double-strand breaks (γH2AX) (A2780 and A2780cis cells [2]): induced DNA-DSBs
- mitROS generation in SKOV3-MCTSs (SKOV3-MCTSs; 24 hours): increased mitROS generation
- Caspase-3,7 activation in SKOV3-MCTSs (SKOV3-MCTSs; FLICA): caused the activation of caspase-3,7
- Annexin-V+ cells in SKOV3-MCTSs (SKOV3-MCTSs; annexin-V-FITC/7AAD, flow cytometry): caused an increase of annexin-V+ cells
- DNA-DSBs (γH2AX) in SKOV3-MCTSs (SKOV3-MCTSs; western blot): induced DNA-DSBs
- 20S proteasome activity (20S proteasome): decreased the 20S proteasome activity in a dose-dependent manner
- TrxR enzymatic activity [3]: did not modify its enzymatic activity
